Data from patent US10913736B2 (UNIVERSITY OF WASHINGTON, priority 2014, dated 2021).

Columns and labels:
[1] = tested on: T. brucei; assay: Growth inhibition assay of T. brucei cell cultures (Alamar Blue, 48 h); assay type: cell-based; details: Trypanosoma brucei; read-out: B) T. brucei EC50
[2] = target: MetRS (T. brucei) (Trypanosoma brucei brucei, UniProt Q38C91); assay: MetRS (T. brucei) ATP depletion assay using Kinase-Glo; assay type: biochemical
MetRS (T. brucei), sequence (Q38C91 entry or part of it): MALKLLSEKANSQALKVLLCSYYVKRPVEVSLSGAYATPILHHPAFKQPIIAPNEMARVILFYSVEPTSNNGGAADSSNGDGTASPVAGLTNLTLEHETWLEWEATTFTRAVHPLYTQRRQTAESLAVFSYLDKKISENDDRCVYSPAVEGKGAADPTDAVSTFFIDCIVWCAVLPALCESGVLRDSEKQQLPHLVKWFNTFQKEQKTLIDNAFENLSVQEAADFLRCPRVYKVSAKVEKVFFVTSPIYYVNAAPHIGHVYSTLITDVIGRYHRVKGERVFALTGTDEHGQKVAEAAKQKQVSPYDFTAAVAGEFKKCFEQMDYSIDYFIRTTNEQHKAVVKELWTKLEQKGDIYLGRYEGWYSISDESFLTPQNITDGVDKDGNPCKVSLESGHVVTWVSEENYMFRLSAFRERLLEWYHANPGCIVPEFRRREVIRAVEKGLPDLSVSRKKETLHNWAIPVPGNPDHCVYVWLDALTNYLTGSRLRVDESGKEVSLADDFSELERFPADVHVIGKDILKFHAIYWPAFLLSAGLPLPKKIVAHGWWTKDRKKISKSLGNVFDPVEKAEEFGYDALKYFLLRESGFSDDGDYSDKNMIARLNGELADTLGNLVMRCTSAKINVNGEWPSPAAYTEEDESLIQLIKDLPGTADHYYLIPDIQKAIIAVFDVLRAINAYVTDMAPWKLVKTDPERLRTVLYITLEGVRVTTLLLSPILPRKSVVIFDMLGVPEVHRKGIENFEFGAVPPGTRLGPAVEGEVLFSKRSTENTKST

`O=C1CN(Cc2ccccc2Cl)CCN1Cc1nc2ccccc2[nH]1` [Compound 1735, 1-(1H-1,3-benzodiazol-2-ylmethyl)-4-[(2-chlorophenyl)methyl]piperazin-2-one] was tested. Which EC50 [1] did it give?
The EC50 was over 20 µM.

What about the IC50 [2] of the same compound?
The IC50 was over 10000 nM.

With `Clc1cc(Cl)cc(NCC2CCCN(c3nc4nc(Cl)c(Br)cc4[nH]3)C2)c1` (stereo not drawn) [Compound 1863, N-((1-(6-bromo-5-chloro-1H-imidazo[4,5-b]pyridin-2-yl)piperidin-3-yl)methyl)-3,5-dichloroaniline] as the compound, how does the EC50 [1] read?
The EC50 was 3.29 µM.

And the IC50 [2]?
The IC50 was over 10000 nM.

What does the source list for `CC(=O)N(Cc1cc(Cl)cc(Cl)c1)C1CCCC(c2nc3ccccc3[nH]2)C1` (stereo not drawn) [Compound 1816, N-(3-(1H-benzo[d]imidazol-2-yl)cyclohexyl)-N-(3,5-dichlorobenzyl) acetamide]?
EC50 [1]: 8.79 µM; IC50 [2]: > 10000 nM

Which EC50 [1] does the source give for `NC(Cc1nc2ccccc2[nH]1)C(=O)NCCc1ccc(Cl)cc1Cl` (stereo not drawn) [Compound 1795, N-(2,4-dichlorophenethyl)-2-amino-3-(1H-benzo[d]imidazol-2-yl)propanamide] here?
The EC50 was 12.3 µM.

And the IC50 [2]?
Its IC50 is over 10000 nM.

How did the EC50 [1] turn out when `COc1ccc(Oc2nc(O)nc(NCc3nc4ccc(F)nc4[nH]3)n2)c(Cl)c1` [Compound 1885, 4-(2-chloro-4-methoxyphenoxy)-6-[({5-fluoro-3H-imidazo[4,5-b]pyridin-2-yl}methyl)amino]-1,3,5-triazin-2-ol] was run?
The EC50 was 5.87 µM.

And the IC50 [2]?
Its IC50 is 1510 nM.

Which EC50 [1] does the source give for `O=C(CSc1nc2ccc(Cl)nc2[nH]1)NCc1cc(Cl)cc(Cl)c1` [Compound 1951, 2-({5-chloro-3H-imidazo[4,5-b]pyridin-2-yl}sulfanyl)-N-[(3,5-dichlorophenyl)methyl]acetamide] here?
Its EC50 is 0.664 µM.

And the IC50 [2]?
Its IC50 is 288 nM.

For `O=C(Cc1cc(Cl)cc(Cl)c1)NCc1nc2cnc(Cl)cc2[nH]1` [Compound 1879, N-({6-chloro-1H-imidazo[4,5-c]pyridin-2-yl}methyl)-2-(3,5-dichlorophenyl)acetamide], which EC50 [1] is on record?
Its EC50 is 11.2 µM.

What about the IC50 [2] of the same compound?
The IC50 was 416 nM.

Which results are given for `COc1cc(CN2CCC[C@H](c3nc4nc(Cl)ccc4[nH]3)C2)cc(OC)c1` [Compound 1872, (S)-5-chloro-2-(1-(3,5-dimethoxybenzyl)piperidin-3-yl)-1H-imidazo[4,5-b]pyridine]?
EC50 [1]: 8.34 µM; IC50 [2]: > 10000 nM

For `CC(=O)N(Cc1cc(Cl)cc(Cl)c1)C1CCCC(c2nc3cc(Cl)cnc3[nH]2)C1` (stereo not drawn) [Compound 1842, N-(3-(6-chloro-3H-imidazo[4,5-b]pyridin-2-yl)cyclohexyl)-N-(3,5-dichlorobenzyl)acetamide], which EC50 [1] is on record?
Its EC50 is 8.58 µM.

And the IC50 [2]?
The IC50 was over 10000 nM.

`O=C(Cc1ccc(Cl)cc1Cl)NCc1nc2ccc(Cl)nc2[nH]1` [Compound 1876, N-({5-chloro-3H-imidazo[4,5-b]pyridin-2-yl}methyl)-2-(2,4-dichlorophenyl)acetamide] was tested. Which EC50 [1] did it give?
Its EC50 is over 20 µM.

What about the IC50 [2] of the same compound?
The IC50 was 375 nM.

Which EC50 [1] does the source give for `CCOc1c(Cl)cc(Cl)cc1CN[C@H]1CCCN(c2nc3nc(Cl)ccc3[nH]2)C1` [Compound 1920, (S)-1-(5-chloro-1H-imidazo[4,5-b]pyridin-2-yl)-N-(3,5-dichloro-2-ethoxybenzyl)piperidin-3-amine] here?
The EC50 was 0.111 µM.

And the IC50 [2]?
The IC50 was 16 nM.

`Clc1cc(Cl)cc(CN2CCC[C@H](c3nc4cc(Cl)ccc4[nH]3)C2)c1` [Compound 1813, (S)-5-chloro-2-(1-(3,5-dichlorobenzyl)piperidin-3-yl)-1H-benzo[d]imidazole] was tested. Which EC50 [1] did it give?
The EC50 was 1.38 µM.

And the IC50 [2]?
The IC50 was 747 nM.

Which EC50 [1] does the source give for `O=C(NCCc1ccc(Cl)cc1Cl)OCc1nc2ccccc2[nH]1` [Compound 1739, [2-(2,4-Dichloro-phenyl)-ethyl]-carbamic acid 1H-benzoimidazol-2-ylmethyl ester] here?
The EC50 was over 10 µM.

What about the IC50 [2] of the same compound?
Its IC50 is 1450 nM.

With `O=C(Cc1cc(Cl)cc(Cl)c1)NCc1nc2ccc(Br)cc2[nH]1` [Compound 1873, N-[(6-bromo-1H-1,3-benzodiazol-2-yl)methyl]-2-(3,5-dichlorophenyl)acetamide] as the compound, how does the EC50 [1] read?
The EC50 was 5.5 µM.

And the IC50 [2]?
The IC50 was 98 nM.

Which results are given for `Clc1cc(Cl)cc(CNC2CCCC(c3nc4ccccc4[nH]3)C2)c1` (stereo not drawn) [Compound 1815, 3-(1H-benzo[d]imidazol-2-yl)-N-(3,5-dichlorobenzyl)cyclohexanamine]?
EC50 [1]: 4.09 µM; IC50 [2]: > 10000 nM

What does the source list for `CC(Cc1nc2ccc(Br)cc2[nH]1)NCc1cc(Cl)cc(Cl)c1` (stereo not drawn) [Compound 1821, [1-(6-bromo-1H-1,3-benzodiazol-2-yl)propan-2-yl][(3,5-dichlorophenyl)methyl]amine]?
EC50 [1]: 1.67 µM; IC50 [2]: 54 nM

What does the source list for `Clc1cc(Cl)c(Cl)c(CN[C@H]2CCCN(c3nc4nc(Cl)c(Br)cc4[nH]3)C2)c1` [Compound 1905, (S)-1-(6-bromo-5-chloro-1H-imidazo[4,5-b]pyridin-2-yl)-N-(2,3,5-trichlorobenzyl)piperidin-3-amine]?
EC50 [1]: > 20 µM; IC50 [2]: 4310 nM

Which EC50 [1] does the source give for `Clc1cc(Cl)cc(CNCCCc2nc3ccc(Cl)cc3[nH]2)c1` [Compound 1832, [3-(6-chloro-1H-1,3-benzodiazol-2-yl)propyl][(3,5-dichlorophenyl)methyl]amine] here?
The EC50 was 2.15 µM.

What about the IC50 [2] of the same compound?
Its IC50 is 243 nM.

Which EC50 [1] does the source give for `C=CCOc1c(Cl)cc(Cl)cc1CN[C@H]1CCCN(c2nc3nc(Cl)ccc3[nH]2)C1` [Compound 1928, (S)—N-(2-(allyloxy)-3,5-dichlorobenzyl)-1-(5-chloro-1H-imidazo[4,5-b]pyridin-2-yl)piperidin-3-amine] here?
Its EC50 is 0.326 µM.

What about the IC50 [2] of the same compound?
Its IC50 is 21 nM.

Which results are given for `COc1c(Br)cc(Br)cc1CN[C@H]1CCCN(c2nc3nc(Cl)ccc3[nH]2)C1` [Compound 1909, (S)-1-(5-chloro-1H-imidazo[4,5-b]pyridin-2-yl)-N-(3,5-dibromo-2-methoxybenzyl)piperidin-3-amine]?
EC50 [1]: 0.334 µM; IC50 [2]: 20 nM

Which EC50 [1] does the source give for `O=C(NCc1nc2nc(Cl)ccc2[nH]1)Nc1ccc(Cl)cc1Cl` [Compound 1891, 3-({5-chloro-3H-imidazo[4,5-b]pyridin-2-yl}methyl)-1-(2,4-dichlorophenyl)urea] here?
Its EC50 is over 20 µM.

And the IC50 [2]?
The IC50 was 3900 nM.

`Fc1ccc2[nH]c(C3CCCC(NCc4cc(Cl)cc(Cl)c4)C3)nc2n1` (stereo not drawn) [Compound 1800, N-(3,5-dichlorobenzyl)-3-(5-fluoro-1H-imidazo[4,5-b]pyridin-2-yl) cyclohexanamine] was tested. Which EC50 [1] did it give?
Its EC50 is 0.961 µM.

What about the IC50 [2] of the same compound?
Its IC50 is 663 nM.

`Fc1ccc2[nH]c(C3CCCN(CCc4cc(Cl)cc(Cl)c4)C3)nc2n1` (stereo not drawn) [Compound 1798, 5-fluoro-2-(1-(3,5-dichlorophenethyl)piperidin-3-yl)-1H-imidazo[4,5-b]pyridine] was tested. Which EC50 [1] did it give?
The EC50 was 1.23 µM.

What about the IC50 [2] of the same compound?
The IC50 was over 10000 nM.

What does the source list for `O=C(Cc1cc2cc(Cl)cc(Cl)c2o1)NCc1nc2ccccc2[nH]1` [Compound 1756, N-((1H-benzo[d]imidazol-2-yl)methyl)-2-(5,7-dichlorobenzofuran-2-yl)acetamide]?
EC50 [1]: > 10 µM; IC50 [2]: 3720 nM

Which results are given for `Clc1cc(Cl)cc(CO[C@H]2CCCN(c3nc4nc(Cl)c(Br)cc4[nH]3)C2)c1` [Compound 1904, (S)-6-bromo-5-chloro-2-(3-((3,5-dichlorobenzyl)oxy)piperidin-1-yl)-1H-imidazo[4,5-b]pyridine]?
EC50 [1]: > 20 µM; IC50 [2]: > 10000 nM

`Clc1cc(Cl)cc(CNCC2CCN2c2nc3nc(Cl)ccc3[nH]2)c1` (stereo not drawn) [Compound 1915, 1-(1-(5-chloro-1H-imidazo[4,5-b]pyridin-2-yl)azetidin-2-yl)-N-(3,5-dichlorobenzyl)methanamine] was tested. Which EC50 [1] did it give?
Its EC50 is 3.1 µM.

What about the IC50 [2] of the same compound?
Its IC50 is 170 nM.

For `O=C(NCc1nc2ccccc2[nH]1)C(=O)NCc1ccc(Cl)cc1Cl` [Compound 1802, N1-((1H-benzo[d]imidazol-2-yl)methyl)-N2-(2,4-dichlorobenzyl)oxalamide], which EC50 [1] is on record?
The EC50 was over 20 µM.

What about the IC50 [2] of the same compound?
The IC50 was 4290 nM.
